# Test results reported in US10173999B2, “Cyclic amine derivative and pharmaceutical use thereof” (Toray Industries, Inc., priority 2015, dated 2019).
# Where a name gives a salt, the structure may show the parent alone.
# Experiments:
# [1] = system: mouse partial sciatic nerve ligation model (neuropathic pain); assay: Mouse partial sciatic nerve ligation model (Seltzer model), von Frey test; assay type: in vivo; conditions: for persistence of analgesic action: oral administration, von Frey test at 1, 2, 3 h
# Experimental: The mouse partial sciatic nerve ligation model was prepared in accordance with the method of Seltzer et al. (Malmberg et al., Pain, vol. 76, p. 215-222, 1998).
# Slc: ICR mice (5 weeks old, male; from Japan SLC, Inc.) or Cr1: CD1 (ICR) mice (5 weeks old, male; from CHARLES RIVER LABORATORIES JAPAN, INC.) were anesthetized with sodium pentobarbital (70 mg/kg, intraperitoneal administration). The sciatic nerve at the femoral region of the right hind paw of each mouse was exposed and triply ligated tightly with silk suture of 8-0 (from NATSUME SEISAKUSHO CO., LTD.) under a stereomicroscope so that only half thickness of the nerve was trapped in the ligature. A group of mice thus treated was designated as a partial sciatic nerve ligation group. A group of mice whose sciatic nerve was just exposed and not ligated was designated as a sham surgery group.
# Evaluation of neuropathic pain (hereinafter referred to as von Frey test) was performed as follows. Mice were conditioned for at least one hour in an acrylic cage for measurement (from NATSUME SEISAKUSHO CO. LTD. or SHINANO SEISAKUSHO) placed on a wire net. Thereafter, using a filament (from North Coast Medical or neuroscience) which exerted a pressure of 0.16 g, the mice were subjected to mechanical tactile stimulus by applying the filament to the plantar surface of the right hind paw 3 times, each for 3 seconds, with an interval of 3 seconds.
# Seven days after the sciatic nerve ligation surgery, the compound of Example 1, 2, 3, 4, 5, 7, 8, 9, 10, 11, 12 or 13 (10 mg/kg for each of the compounds of Example 1, 2, 3, 4, 5, 8, 10 and 13, 0.01 to 1 mg/kg for the compound of Example 7, 0.01 to 10 mg/kg for the compound of Example 9; 0.001 to 0.1 mg/kg for the compound of Example 11; and 0.01 to 1 mg/kg for the compound of Example 12) or pregabalin as a positive control (10 mg/kg; Bosche Scientific) was dissolved in distilled water and orally administered to mice of the partial sciatic nerve ligation group. The groups of the mice in the partial sciatic nerve ligation mouse to which the compound of Example 1, 2, 3, 4, 5, 7, 8, 9, 10, 11, 12 or 13 was administered were designated as a “partial sciatic nerve ligation+the compound of Example 1” group; a “partial sciatic nerve ligation+the compound of Example 2” group; a “partial sciatic nerve ligation+the compound of Example 3” group; a “partial sciatic nerve ligation+the compound of Example 4” group; a “partial sciatic nerve ligation+the compound of Example 5” group; a “partial sciatic nerve ligation+the compound of Example 7” group; a “partial sciatic nerve ligation+the compound of Example 8” group; a “partial sciatic nerve ligation+the compound of Example 9” group; a “partial sciatic nerve ligation+the compound of Example 10” group; a “partial sciatic nerve ligation+the compound of Example 11” group; a “partial sciatic nerve ligation+the compound of Example 12” group; and a “partial sciatic nerve ligation+the compound of Example 13” group, respectively. The partial sciatic nerve ligation mouse group to which pregabalin was administered was designated as a “partial sciatic nerve ligation+pregabalin” group. A group wherein distilled water was orally administered to the mice of the partial sciatic nerve ligation group was designated as a “partial sciatic nerve ligation+distilled water” group. A group wherein distilled water was orally administered to the mice of the sham surgery group was designated as a “sham surgery+distilled water” group.
# The von Frey test was carried out before oral administration of a test compound (pre-value), one hour, two hours, and three hours after the oral administration of a test compound.
# Slc: ICR mice (5 weeks old, male; Japan SLC, Inc.) were anesthetized with sodium pentobarbital (70 mg/kg, intraperitoneal administration).
# [2] = system: human aortic smooth muscle cells (T/G HA-VSMG); assay: Inducibility of cytoplasmic vacuolation in human aortic smooth muscle cells; assay type: cell-based; conditions: Treatment time: 24 hours
# Experimental: As a test compound, the compound of Example 3, 9, 11, 12 or compounds of Comparative Examples 2 to 6 were used. Canine aortic smooth muscle cells (Canine Aortic Smooth Muscle Cells, supply source: Toyobo Co., Ltd.) or human aortic smooth muscle cells of (T/G HA-VSMG, supply source: ATCC) were treated with a test compound (1.0 or 1.2 mmol/L in concentration) for 24 hours or 2 weeks. The cells were stained with HE, immunohistochemically for LAMP-2 or toluidine blue, and thereafter the presence or absence of cytoplasmic vacuolation was determined by using an optical microscope.
# [3] = system: fibromyalgia syndrome model rats; assay: Rat fibromyalgia syndrome model (acidic saline), allodynia by von Frey filament; assay type: in vivo; conditions: Day 7, pregabalin 10 mg/kg
# Experimental: To prepare a fibromyalgia syndrome model rat (Sluka et al., Journal of Pharmacology and Experimental Therapeutics, vol. 302, p. 1146-1150, 2002; Nagakura et al., Pain, vol. 146, p. 26-33, 2009; Sluka et al., Pain, vol. 146, p. 3-4, 2009), which is generally employed widely in basic research for fibromyalgia syndrome, acidic saline (100 μL) adjusted to pH 4.0 was intramuscularly injected to the gastrocnemius muscle of the right hind paw of Crl: CD(SD) rat (6 to 7 weeks old, male; from CHARLES RIVER LABORATORIES JAPAN, INC.) under continuous inhalation anesthesia with isoflurane, twice (once in each day of Day 1 and Day 6, wherein Day 1 was the date on which the acidic saline was initially administrated). The rats thus prepared were raised in a breeding room controlled at an indoor temperature of 21 to 25° C. and an indoor humidity of 40 to 70% under the conditions of voluntary intake of food and water. In the same manner, rats to which physiological saline in place of acidic saline was intramuscularly injected were raised. The rats thus raised and not afflicted with fibromyalgia syndrome (“physiological saline+distilled water” group in FIG. 13) were also used in the experiment.
# Seven days after the initial administration of acidic saline, allodynia in each rat was measured. […] Note that, measurement of allodynia was performed by use of a von Frey filament (from North Coast Medical) in accordance with the method described in a known literature (Chaplan et al., Journal of Neuroscience Methods, vol. 53, p. 55-63, 1994).
# The fibromyalgia syndrome model rats thus obtained are divided into groups such that the 50% response threshold (mean value of the right hind paw and the left hind paw) of the individual groups became equal, and a test compound was administered to the fibromyalgia syndrome model rats on Day 7 after the initial administration of acidic saline.
# The compound of Example 11 (0.1 to 10 mg/kg) was dissolved in distilled water and then orally administered to fibromyalgia syndrome model rats (“acidic saline+the compound of Example 11” in FIG. 13). Pregabalin serving as a positive control (10 mg/kg; from KEMPROTEC) was dissolved in distilled water and then orally administered (“acidic saline+pregabalin” in FIG. 13). As a control, distilled water was orally administered to fibromyalgia syndrome model rats (“acidic saline+distilled water” in FIG. 13). Furthermore, distilled water was orally administered to rats not afflicted with fibromyalgia syndrome (“physiological saline+distilled water” in FIG. 13). One hour and three hours after the oral administration, allodynia in individual rats was measured to evaluate an analgesic action. At this time, the 50% response threshold value in the measurement of allodynia before oral administration of the test compound on Day 7 after initial administration of acidic saline was defined as the pre-value.
# To prepare a fibromyalgia syndrome model rat (Sluka et al., Journal of Pharmacology and Experimental Therapeutics, vol. 302, p. 1146-50, 2002; Nagakura et al., Pain, vol. 146, p. 26-33, 2009; Sluka et al., Pain, vol. 146, p. 3-4, 2009), which is generally employed widely in basic research for fibromyalgia syndrome, acidic saline (100 μL) adjusted to pH 4.0 was intramuscularly injected to the gastrocnemius muscle of the right hind paw of Slc: (SD) rats (6 to 7 weeks old, male; from Japan SLC, Inc.) under continuous inhalation anesthesia with isoflurane, twice (once in each of Day 1 and Day 6, wherein Day 1 was the initial administration date of the acidic saline). The rats thus prepared were raised in a breeding room controlled at an indoor temperature of 21 to 25° C. and an indoor humidity of 40 to 70% under the conditions of voluntary intake of food and water. In the same manner, rats to which physiological saline was intramuscularly injected in place of acidic saline were raised. […]
# [4] = oral, 7 days after ligation, 1-3 h after dosing, 10 mg/kg (Ex 1,2,3,4,5,8,10,13, pregabalin), 0.01-1 mg/kg (Ex 7,12), 0.01-10 mg/kg (Ex 9), 0.001-0.1 mg/kg (Ex 11), vs ligation+distilled water, Welch or Shirley-Williams test
SMILES,"analgesic action in von Frey test (total score) [1, 4]",further results
"CC(=O)OC(CC(=O)N1CCC(N(C)C)CC1)c1nccn1C (centres unmarked) [Example 12, 3-(4-(dimethylamino)piperidin-1-yl)-1-(1-methyl-1H-imidazol-2-yl)-3-oxopropyl acetate]",statistically significant analgesic action,persistence of analgesic action [1]: persistence of analgesic action was confirmed; Inducibility of cytoplasmic vacuolation ([2]; Concentration: 1.0 mmol/L): Absent
"CN(C)C1CCN(C(=O)CC(O)c2nccn2C)CC1 (centres unmarked) [Example 7, 1-(4-(dimethylamino)piperidin-1-yl)-3-hydroxy-3-(1-methyl-1H-imidazol-2-yl)propan-1-one hydrochloride]",,"analgesic action in von Frey test (total score) ([1]; mouse, in vivo): statistically significant analgesic action; persistence of analgesic action [1]: persistence of analgesic action was confirmed"
"CCN(CC)C1CCN(C(=O)CC(O)c2nccn2C)CC1 (centres unmarked) [Example 2, 1-(4-(diethylamino)piperidin-1-yl)-3-hydroxy-3-(1-methyl-1H-imidazol-2-yl)propan-1-one]",statistically significant analgesic action,
"CCCCC(=O)OC(CC(=O)N1CCC(N(C)C)CC1)c1nccn1C (centres unmarked) [Example 13, 3-(4-(dimethylamino)piperidin-1-yl)-1-(1-methyl-1H-imidazol-2-yl)-3-oxopropylpentanoate]",statistically significant analgesic action,
"CN(C)C1CCN(C(=O)CC(O)c2nccn2C(F)F)CC1 (centres unmarked) [Example 10, 3-(1-(difluoromethyl)-1H-imidazol-2-yl)-1-(4-(dimethylamino)piperidin-1-yl)-3-hydroxypropan-1-one]",statistically significant analgesic action,
"CN1CCN(C2CCN(C(=O)CC(O)c3nccn3C)CC2)CC1 (centres unmarked) [Example 3, 3-hydroxy-3-(1-methyl-1H-imidazol-2-yl)-1-(4-(4-methylpiperazin-1-yl)piperidin-1-yl)propan-1-one]",statistically significant analgesic action,Inducibility of cytoplasmic vacuolation ([2]; Concentration: 1.2 mmol/L): Absent
"CN(C)[C@@H]1CCN(C(=O)CC(O)c2nccn2C)C1 (stereo partly drawn) [Example 5, 1-((R)-3-(dimethylamino)pyrrolidin-1-yl)-3-hydroxy-3-(1-methyl-1H-imidazol-2-yl)propan-1-one]",statistically significant analgesic action,
CC(C)C[C@H](CN)CC(=O)O [pregabalin],,"allodynia (50% response threshold) vs acidic saline+distilled water group ([3]; Comparative Example 8: oral, Comparative Example 1 0.1 to 1 mg/kg, 1, 2 and 3 h after dosing): statistically significantly improved; allodynia (50% response threshold) vs acidic saline+distilled water group ([3]; Example 15: oral, Example 11 0.1 to 10 mg/kg, 1 and 3 h after dosing): statistically significantly improved; analgesic action in von Frey test (total score) ([1]; mouse, in vivo): statistically significant analgesic action"
"CN(C)C1CCN(C(=O)CC(O)c2nccn2CC(F)(F)F)CC1 (centres unmarked) [Example 9, 1-(4-(dimethylamino)piperidin-1-yl)-3-hydroxy-3-(1-(2,2,2-trifluoroethyl)-1H-imidazol-2-yl)propan-1-one]",statistically significant analgesic action,persistence of analgesic action [1]: persistence of analgesic action was confirmed; Inducibility of cytoplasmic vacuolation ([2]; Concentration: 1.2 mmol/L): Absent
"CCN(C)C1CCN(C(=O)CC(O)c2nccn2C)CC1 (centres unmarked) [Example 1, 1-(4-(ethylmethylamino)piperidin-1-yl)-3-hydroxy-3-(1-methyl-1H-imidazol-2-yl)propan-1-one]",statistically significant analgesic action,
"CCn1ccnc1C(O)CC(=O)N1CCC(N(C)C)CC1 (centres unmarked) [Example 8, 1-(4-(dimethylamino)piperidin-1-yl)-3-(1-ethyl-1H-imidazol-2-yl)-3-hydroxypropan-1-one]",statistically significant analgesic action,
CN(C)[C@@H]1CCCN(C(=O)CC(O)c2nccn2C)C1 (some centres unmarked) [Example 4],statistically significant analgesic action,
